According to paper PMC12621043, “Un-LOK-ing a New Approach for Conformational Selective Targeting of STK10 (LOK)” (ACS Medicinal Chemistry Letters, 2025):

Columns and labels:
SLK = SLK (Homo sapiens, UniProt Q9H2G2); test: NanoBRET target engagement assay; assay type: cell-based; design: has a greater impact on the full-length protein than on the kinase domains; host or cells: HEK293T (ATCC CRL-3216); conditions: HEK293T cells
PKMYT1A = molecular target: T1, PKMYT1A (Homo sapiens, UniProt Q99640); test: DSF Tm panel; assay type: binding; conditions: 10 μM compound
T1 construct: purchased in-house DSF kinase panel (SGC-style construct names; the trailing letter is the construct ID)
T1 sequence (Q99640 75-362): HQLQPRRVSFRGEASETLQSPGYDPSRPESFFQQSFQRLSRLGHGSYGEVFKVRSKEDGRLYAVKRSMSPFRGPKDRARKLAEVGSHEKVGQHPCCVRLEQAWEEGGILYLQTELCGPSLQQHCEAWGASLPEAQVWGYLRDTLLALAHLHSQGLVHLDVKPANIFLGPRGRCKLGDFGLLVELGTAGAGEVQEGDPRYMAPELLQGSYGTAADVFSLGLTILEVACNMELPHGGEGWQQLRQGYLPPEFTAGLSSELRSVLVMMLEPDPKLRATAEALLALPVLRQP

MARK3A = molecular target: T2, MARK3A (Homo sapiens, UniProt P27448); test: DSF Tm panel; assay type: binding; conditions: 10 μM compound
T2 construct: purchased in-house DSF kinase panel (SGC-style construct names; the trailing letter is the construct ID)

MAPK14A = molecular target: T3, MAPK14A (Homo sapiens, UniProt Q16539); test: DSF Tm panel; assay type: binding; conditions: 10 μM compound
T3 construct: purchased in-house DSF kinase panel (SGC-style construct names; the trailing letter is the construct ID)

VRK1A = molecular target: T4, VRK1A (Homo sapiens, UniProt Q99986); test: DSF Tm panel; assay type: binding; conditions: 10 μM compound
T4 construct: purchased in-house DSF kinase panel (SGC-style construct names; the trailing letter is the construct ID)
T4 sequence (Q99986 1-396): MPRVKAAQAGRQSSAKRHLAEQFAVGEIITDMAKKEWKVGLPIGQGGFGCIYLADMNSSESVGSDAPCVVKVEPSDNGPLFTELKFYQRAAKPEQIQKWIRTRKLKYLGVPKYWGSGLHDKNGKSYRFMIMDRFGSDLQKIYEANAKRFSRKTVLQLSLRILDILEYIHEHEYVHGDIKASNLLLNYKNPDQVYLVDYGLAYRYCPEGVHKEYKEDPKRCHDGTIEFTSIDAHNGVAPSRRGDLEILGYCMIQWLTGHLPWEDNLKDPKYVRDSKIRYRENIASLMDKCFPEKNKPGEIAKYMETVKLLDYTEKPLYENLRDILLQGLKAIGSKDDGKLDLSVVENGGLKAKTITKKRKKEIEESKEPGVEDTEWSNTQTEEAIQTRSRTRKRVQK

MST3A = molecular target: T5, MST3A (Homo sapiens, UniProt Q9Y6E0); test: DSF Tm panel; assay type: binding; conditions: 10 μM compound
T5 construct: purchased in-house DSF kinase panel (SGC-style construct names; the trailing letter is the construct ID)

BMP2KA = molecular target: T6, BMP2KA (Homo sapiens, UniProt Q9NSY1); test: DSF Tm panel; assay type: binding; conditions: 10 μM compound
T6 construct: purchased in-house DSF kinase panel (SGC-style construct names; the trailing letter is the construct ID)

EPHB3A = molecular target: T7, EPHB3A (Homo sapiens, UniProt P54753); test: DSF Tm panel; assay type: binding; conditions: 10 μM compound
T7 construct: purchased in-house DSF kinase panel (SGC-style construct names; the trailing letter is the construct ID)
T7 sequence (P54753 34-998): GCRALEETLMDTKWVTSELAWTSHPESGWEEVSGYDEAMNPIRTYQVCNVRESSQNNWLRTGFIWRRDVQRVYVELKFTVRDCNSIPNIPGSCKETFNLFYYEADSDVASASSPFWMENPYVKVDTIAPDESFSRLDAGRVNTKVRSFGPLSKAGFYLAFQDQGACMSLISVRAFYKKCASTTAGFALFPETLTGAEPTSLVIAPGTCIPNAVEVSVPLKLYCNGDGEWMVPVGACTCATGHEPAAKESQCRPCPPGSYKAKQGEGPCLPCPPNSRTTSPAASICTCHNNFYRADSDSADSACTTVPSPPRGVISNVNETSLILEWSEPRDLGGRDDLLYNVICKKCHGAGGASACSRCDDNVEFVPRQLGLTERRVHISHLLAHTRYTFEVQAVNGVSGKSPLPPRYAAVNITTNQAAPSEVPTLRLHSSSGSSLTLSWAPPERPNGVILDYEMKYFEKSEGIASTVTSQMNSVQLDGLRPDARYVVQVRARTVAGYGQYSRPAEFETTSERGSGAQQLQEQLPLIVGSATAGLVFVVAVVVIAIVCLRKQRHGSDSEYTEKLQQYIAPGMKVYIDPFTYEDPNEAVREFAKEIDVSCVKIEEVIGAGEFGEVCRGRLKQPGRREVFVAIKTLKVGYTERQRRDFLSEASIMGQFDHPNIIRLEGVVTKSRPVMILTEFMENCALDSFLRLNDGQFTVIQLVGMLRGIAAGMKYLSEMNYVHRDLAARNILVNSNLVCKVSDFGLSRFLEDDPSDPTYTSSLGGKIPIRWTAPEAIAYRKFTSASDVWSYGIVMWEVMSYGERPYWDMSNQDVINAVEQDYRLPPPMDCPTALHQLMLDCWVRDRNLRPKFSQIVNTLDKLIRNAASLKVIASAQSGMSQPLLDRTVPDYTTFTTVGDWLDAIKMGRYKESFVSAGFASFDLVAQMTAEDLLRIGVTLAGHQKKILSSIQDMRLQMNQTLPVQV

CASKA = molecular target: T8, CASKA (Homo sapiens, UniProt O14936); test: DSF Tm panel; assay type: binding; conditions: 10 μM compound
T8 construct: purchased in-house DSF kinase panel (SGC-style construct names; the trailing letter is the construct ID)
T8 sequence (O14936 12-276): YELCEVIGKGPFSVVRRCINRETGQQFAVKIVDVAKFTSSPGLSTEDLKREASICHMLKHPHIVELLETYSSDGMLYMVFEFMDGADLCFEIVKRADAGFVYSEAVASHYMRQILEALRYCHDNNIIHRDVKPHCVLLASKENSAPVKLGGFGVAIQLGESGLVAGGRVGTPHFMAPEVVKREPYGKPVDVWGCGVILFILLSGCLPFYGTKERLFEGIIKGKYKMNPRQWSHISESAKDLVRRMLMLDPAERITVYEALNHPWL

FGFR2A = molecular target: T9, FGFR2A (Homo sapiens, UniProt P21802); test: DSF Tm panel; assay type: binding; conditions: 10 μM compound
T9 construct: purchased in-house DSF kinase panel (SGC-style construct names; the trailing letter is the construct ID)

MAPK15A (MAPK15HSD) = molecular target: T10, MAPK15A (MAPK15HSD) (Homo sapiens, UniProt Q8TD08); test: DSF Tm panel; assay type: binding; conditions: 10 μM compound
T10 sequence (Q8TD08 13-304 limits assumed): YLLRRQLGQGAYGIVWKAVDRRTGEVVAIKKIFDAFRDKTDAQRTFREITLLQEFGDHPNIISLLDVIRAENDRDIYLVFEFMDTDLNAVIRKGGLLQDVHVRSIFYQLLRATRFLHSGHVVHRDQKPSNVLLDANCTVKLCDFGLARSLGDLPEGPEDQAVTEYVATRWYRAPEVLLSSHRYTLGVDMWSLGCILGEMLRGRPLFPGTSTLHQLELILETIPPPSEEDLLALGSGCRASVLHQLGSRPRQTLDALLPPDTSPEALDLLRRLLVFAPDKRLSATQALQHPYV

RPS6KA1A = test: DSF Tm panel; assay type: binding; conditions: 10 μM compound
GPRK5A = molecular target: T11, GPRK5A (Homo sapiens, UniProt P34947); test: DSF Tm panel; assay type: binding; conditions: 10 μM compound
T11 construct: purchased in-house DSF kinase panel (SGC-style construct names; the trailing letter is the construct ID)
T11 sequence (P34947 186-514): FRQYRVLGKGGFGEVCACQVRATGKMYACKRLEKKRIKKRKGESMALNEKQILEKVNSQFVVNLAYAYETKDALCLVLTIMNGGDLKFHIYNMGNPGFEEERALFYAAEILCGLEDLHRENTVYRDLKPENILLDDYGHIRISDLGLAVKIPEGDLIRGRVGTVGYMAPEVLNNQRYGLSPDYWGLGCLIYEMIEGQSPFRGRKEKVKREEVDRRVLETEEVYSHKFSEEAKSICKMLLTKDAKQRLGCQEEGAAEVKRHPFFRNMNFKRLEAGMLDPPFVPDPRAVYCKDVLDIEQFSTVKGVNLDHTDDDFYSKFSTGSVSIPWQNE

Sequence of SLK (Q9H2G2 whole entry, the tested form may be a part): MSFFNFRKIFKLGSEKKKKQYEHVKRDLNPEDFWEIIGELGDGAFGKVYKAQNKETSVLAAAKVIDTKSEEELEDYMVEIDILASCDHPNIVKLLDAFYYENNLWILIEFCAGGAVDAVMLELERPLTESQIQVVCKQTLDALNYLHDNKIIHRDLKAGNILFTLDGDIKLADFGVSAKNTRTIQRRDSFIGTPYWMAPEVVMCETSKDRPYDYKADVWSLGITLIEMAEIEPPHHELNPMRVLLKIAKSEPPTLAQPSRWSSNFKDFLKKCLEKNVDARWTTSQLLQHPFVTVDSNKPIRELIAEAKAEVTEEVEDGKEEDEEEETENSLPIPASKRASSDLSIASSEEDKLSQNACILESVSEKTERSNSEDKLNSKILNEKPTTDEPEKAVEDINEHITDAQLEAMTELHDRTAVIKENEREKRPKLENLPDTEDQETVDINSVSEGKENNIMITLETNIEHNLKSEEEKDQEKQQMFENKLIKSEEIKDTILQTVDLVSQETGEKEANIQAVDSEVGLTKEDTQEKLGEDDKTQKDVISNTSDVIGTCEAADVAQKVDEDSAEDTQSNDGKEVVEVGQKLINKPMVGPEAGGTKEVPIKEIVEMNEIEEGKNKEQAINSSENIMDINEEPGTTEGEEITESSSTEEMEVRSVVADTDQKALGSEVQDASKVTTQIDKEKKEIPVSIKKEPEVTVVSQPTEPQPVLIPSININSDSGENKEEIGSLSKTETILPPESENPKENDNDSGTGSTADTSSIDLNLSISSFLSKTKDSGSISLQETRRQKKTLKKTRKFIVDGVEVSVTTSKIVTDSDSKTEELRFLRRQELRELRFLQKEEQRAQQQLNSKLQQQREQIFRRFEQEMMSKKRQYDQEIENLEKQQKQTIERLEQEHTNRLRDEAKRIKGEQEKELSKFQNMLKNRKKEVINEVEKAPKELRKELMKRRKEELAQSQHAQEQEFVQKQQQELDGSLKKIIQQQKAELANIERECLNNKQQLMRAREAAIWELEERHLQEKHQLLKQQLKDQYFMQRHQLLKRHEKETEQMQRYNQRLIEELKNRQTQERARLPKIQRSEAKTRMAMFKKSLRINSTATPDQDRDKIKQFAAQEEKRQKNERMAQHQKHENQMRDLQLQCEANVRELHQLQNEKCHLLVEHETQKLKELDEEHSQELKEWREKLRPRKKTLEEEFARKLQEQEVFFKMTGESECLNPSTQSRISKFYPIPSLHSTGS
T3 sequence (Q16539 whole entry): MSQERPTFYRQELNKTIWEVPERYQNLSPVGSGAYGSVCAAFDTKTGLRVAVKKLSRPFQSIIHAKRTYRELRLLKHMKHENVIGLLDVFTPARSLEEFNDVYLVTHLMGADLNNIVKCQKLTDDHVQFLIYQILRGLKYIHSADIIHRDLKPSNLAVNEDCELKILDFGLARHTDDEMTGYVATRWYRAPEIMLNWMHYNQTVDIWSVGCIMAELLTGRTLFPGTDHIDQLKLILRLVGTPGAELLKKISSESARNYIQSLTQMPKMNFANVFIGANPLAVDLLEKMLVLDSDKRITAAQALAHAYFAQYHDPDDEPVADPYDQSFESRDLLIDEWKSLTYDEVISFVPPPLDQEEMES
T6 sequence (Q9NSY1 38-345): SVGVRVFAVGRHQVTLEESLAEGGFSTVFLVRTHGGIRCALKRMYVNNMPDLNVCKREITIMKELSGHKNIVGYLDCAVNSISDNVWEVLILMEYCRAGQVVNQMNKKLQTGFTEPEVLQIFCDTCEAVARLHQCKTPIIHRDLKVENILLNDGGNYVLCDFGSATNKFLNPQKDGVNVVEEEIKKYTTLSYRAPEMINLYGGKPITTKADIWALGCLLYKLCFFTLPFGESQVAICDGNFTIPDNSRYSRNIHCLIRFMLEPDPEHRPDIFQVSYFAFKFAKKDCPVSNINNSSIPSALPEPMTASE
T5 sequence (Q9Y6E0 whole entry): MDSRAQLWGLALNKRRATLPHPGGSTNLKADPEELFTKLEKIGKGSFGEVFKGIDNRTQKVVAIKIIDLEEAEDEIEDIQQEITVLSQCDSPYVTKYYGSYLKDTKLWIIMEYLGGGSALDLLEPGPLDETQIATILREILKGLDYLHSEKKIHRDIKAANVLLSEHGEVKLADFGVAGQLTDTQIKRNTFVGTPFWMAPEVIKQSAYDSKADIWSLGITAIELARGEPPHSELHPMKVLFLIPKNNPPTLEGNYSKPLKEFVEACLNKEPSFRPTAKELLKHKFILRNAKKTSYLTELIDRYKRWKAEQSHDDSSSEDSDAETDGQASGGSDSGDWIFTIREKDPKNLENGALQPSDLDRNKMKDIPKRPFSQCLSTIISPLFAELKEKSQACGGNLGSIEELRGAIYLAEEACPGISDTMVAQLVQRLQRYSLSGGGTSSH
T2 sequence (P27448 56-307): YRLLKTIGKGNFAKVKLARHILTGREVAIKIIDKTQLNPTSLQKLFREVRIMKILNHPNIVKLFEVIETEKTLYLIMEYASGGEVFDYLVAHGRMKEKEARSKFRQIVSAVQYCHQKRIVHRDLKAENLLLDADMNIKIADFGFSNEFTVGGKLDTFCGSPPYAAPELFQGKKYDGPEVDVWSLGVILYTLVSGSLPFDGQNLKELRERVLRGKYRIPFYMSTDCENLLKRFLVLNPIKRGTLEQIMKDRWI
T9 sequence (P21802 458-770): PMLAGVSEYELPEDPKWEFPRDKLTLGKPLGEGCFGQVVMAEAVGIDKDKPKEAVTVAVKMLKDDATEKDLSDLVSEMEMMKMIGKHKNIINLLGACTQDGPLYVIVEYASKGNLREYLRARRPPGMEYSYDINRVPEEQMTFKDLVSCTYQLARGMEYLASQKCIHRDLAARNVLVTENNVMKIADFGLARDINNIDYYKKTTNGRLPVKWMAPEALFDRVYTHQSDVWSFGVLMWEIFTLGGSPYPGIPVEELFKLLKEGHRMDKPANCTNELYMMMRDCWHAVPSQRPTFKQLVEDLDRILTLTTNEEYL

Row | SMILES | EC50 (SLK) | ΔTm at 10 µM (PKMYT1A) | ΔTm at 10 µM (MARK3A) | ΔTm at 10 µM (MAPK14A) | ΔTm at 10 µM (VRK1A) | ΔTm at 10 µM (MST3A) | ΔTm at 10 µM (BMP2KA) | ΔTm at 10 µM (EPHB3A) | ΔTm at 10 µM (CASKA) | ΔTm at 10 µM (FGFR2A) | ΔTm at 10 µM (MAPK15A (MAPK15HSD)) | ΔTm RPS6KA1A (RPS6KA1A) | ΔTm at 10 µM (GPRK5A)
1 | O=C(NCc1ccccc1)Nc1ccc2cc1OCCOCCNc1ccn3ncc-2c3n1 [compound 16] | > 50 µM | 0.6 °C | 0.7 °C | -0.6 °C | -0.4 °C | 1.5 °C | 12.2 °C | 0.8 °C | 2.2 °C | 4.8 °C | 4.9 °C | 1,4 °C | 1.2 °C
2 | O=C(NCc1ccccc1Cl)Nc1ccc2cc1OCCOCCNc1ccn3ncc-2c3n1 [compound 17] | > 50 µM | 1 °C | 0.8 °C | 0 °C | 0.1 °C | 0.7 °C | 9.2 °C | 0.3 °C | 2.8 °C | 1.7 °C | 6 °C | 1,2 °C | 1.3 °C
3 | O=C(NCc1cccc(Cl)c1)Nc1ccc2cc1OCCOCCNc1ccn3ncc-2c3n1 [compound 18] | > 50 µM | 1.5 °C | 0.7 °C | 0.3 °C | 0.3 °C | 0.7 °C | 8.7 °C | 0.2 °C | 2.1 °C | 3.3 °C | 2.3 °C | 0,7 °C | 1.1 °C
4 | O=C(NCc1ccc(Cl)cc1)Nc1ccc2cc1OCCOCCNc1ccn3ncc-2c3n1 [compound 19] | > 50 µM | 1.4 °C | 0.2 °C | 0.1 °C | 0.1 °C | 0.7 °C | 9.8 °C | -0.1 °C | 2.2 °C | 3.7 °C | 1.8 °C | 0,4 °C | 1.5 °C
5 | O=C(NCc1ccc(Cl)cc1Cl)Nc1ccc2cc1OCCOCCNc1ccn3ncc-2c3n1 [compound 20] | > 50 µM | 1.6 °C | 1.7 °C | 0.8 °C | 0.4 °C | 0 °C | 6.7 °C | 0.1 °C | 1.7 °C | 0.9 °C | 1.3 °C | 0,9 °C | 1.3 °C
6 | O=C(NCc1ccc(Cl)cc1F)Nc1ccc2cc1OCCOCCNc1ccn3ncc-2c3n1 [compound 21] | > 50 µM | 1.9 °C | 1.5 °C | 0.5 °C | 0.9 °C | 0.6 °C | 7.5 °C | -0.4 °C | 2.7 °C | 2.3 °C | 1.8 °C | 1,1 °C | 1.4 °C
7 | Cc1cc(Cl)ccc1CNC(=O)Nc1ccc2cc1OCCOCCNc1ccn3ncc-2c3n1 [compound 23] | > 50 µM | 2.1 °C | 2.4 °C | 0.3 °C | 0.8 °C | 0.3 °C | 5.9 °C | 0.9 °C | 2.5 °C | 1.9 °C | 0.8 °C | 0,8 °C | 0.8 °C
8 | Cc1cc(Br)ccc1CNC(=O)Nc1ccc2cc1OCCOCCNc1ccn3ncc-2c3n1 [compound 24] | > 50 µM | 0.5 °C | 0.8 °C | 2 °C | 1 °C | -4.3 °C | 6.7 °C | 0.7 °C | 0.6 °C | 2.2 °C | 0.7 °C | 0,1 °C | 0 °C
9 | Cc1ccc(F)cc1CNC(=O)Nc1ccc2cc1OCCOCCNc1ccn3ncc-2c3n1 [compound 26] | > 50 µM | 0.3 °C | 0.2 °C | 2.7 °C | 0.5 °C | -2 °C | 9.1 °C | 0.9 °C | 1.2 °C | 3.5 °C | 2.4 °C | 0,3 °C | 0.1 °C
10 | O=C(NCc1ccccc1C(F)(F)F)Nc1ccc2cc1OCCOCCNc1ccn3ncc-2c3n1 [compound 27] | > 50 µM | 0.7 °C | 1.4 °C | 2.6 °C | 0.4 °C | -3.4 °C | 7.2 °C | 1.4 °C | 1.6 °C | 2.7 °C | 2.4 °C | 0,2 °C | 0.2 °C
11 | O=C(NCc1ccc(C(F)(F)F)cc1)Nc1ccc2cc1OCCOCCNc1ccn3ncc-2c3n1 [compound 28] | > 50 µM | 1.1 °C | 1.4 °C | 3.1 °C | 0.6 °C | -4.5 °C | 7.7 °C | 1.4 °C | 0.5 °C | 2.3 °C | 0.5 °C | 0,2 °C | 0.7 °C
12 | COc1ccc(CNC(=O)Nc2ccc3cc2OCCOCCNc2ccn4ncc-3c4n2)cc1 [compound 31] |  | 0.3 °C | 0.2 °C | 1.5 °C | 0.2 °C | -5.3 °C | 12 °C | 0.8 °C | 1.8 °C | 3.1 °C | 4.1 °C |  | 0.9 °C
